What all share (format): cell-based
The subject of test [1] is Streptococcus pyogenes ATCC19615. As to the kind of experiment: MIC, microbroth dilution. Conditions: Streptococcus pyogenes ATCC19615, rifS; read-out: Antimicrobial activity (MIC). On the technique in general: Broth dilution looks for growth in wells or tubes with falling amounts of substance.
Test [2] relates to Staphylococcus aureus ATCC29213. The experiment in a line: MIC, microbroth dilution. Conditions: Staphylococcus aureus ATCC29213, rifS; read-out: Antimicrobial activity (MIC).
Test [3] has as its system Mycobacterium smegmatis ATCC700084. The experiment in a line: MIC, microbroth dilution. Conditions: Mycolicibacterium smegmatis; Mycobacterium smegmatis ATCC700084, rifS; read-out: Antimicrobial activity (MIC).
The subject of test [4] is Haemophilus influenzae ATCC10211. The experiment in a line: MIC, microbroth dilution. The conditions noted are these: Haemophilus influenzae ATCC10211, rifS; read-out: Antimicrobial activity (MIC).
In test [5] the test system is Staphylococcus epidermidis ATCC12228. As to the kind of experiment: MIC, microbroth dilution. Conditions: Staphylococcus epidermidis ATCC12228, rifS; read-out: Antimicrobial activity (MIC).
Test [6] deals with Enterococcus faecalis ATCC29212. As to the kind of experiment: MIC, microbroth dilution. Conditions: Enterococcus faecalis ATCC29212, rifS; read-out: Antimicrobial activity (MIC).
Test [7] relates to Staphylococcus aureus ATCC29213 rpoB^H418Y. The experiment in a line: microbe, parasite or virus in culture. The conditions noted are these: Staphylococcus aureus ATCC29213 rpoB^H418Y, rifR; read-out: Antimicrobial activity (MIC). The procedure:
(§1) Representative compounds were assayed for antimicrobial activity as follows: Minimum Inhibitory Concentrations (“MICs”) were determined by the microbroth dilution method as per NCCLS guidelines (National Committee for Clinical Laboratory Standards. 2000. Methods for dilution antimicrobial susceptibility tests for bacteria that grow aerobically, 5th ed. M7-A5. National Committee for Clinical Laboratory Standards, Wayne, Pa.), except that all growth incubations were conducted at 37° C. Bacterial cultures were tested in the following bacteriological media: S. aureus, S. epidermidis, and E. coli in Cation-Adjusted Mueller-Hinton Broth, S. pneumoniae in THY Broth supplemented with 1 mg/mL catalase under 5% CO2 atmosphere, S. pyogenes in THY Broth, E. faecalis in BHI Broth, H. influenzae in BHI Broth supplemented with 0.75 μL of 1 mg/mL NAD and 150 μL of 1 mg/ml hematin per 5 mL, and M. smegmatis in Middlebrook Broth plus ADC Enrichment.
(§2) S. aureus ATCC 29213 RpoB^H418Y is a rifampin-resistant strain with a mutation in the RpoB gene of RNA polymerase. […] S. aureus EN1252a gyrA^S84L grlA^S80F is a quinolone-resistant strain due to double gene mutations of DNA gyrase and topoisomerase IV.

For test [8], the system named is Staphylococcus aureus ATCC29213 rpoB^D417Y. As to the kind of experiment: microbe, parasite or virus in culture. Conditions: Staphylococcus aureus ATCC29213 rpoB^D417Y, rifR; read-out: Antimicrobial activity (MIC). The protocol: as §1, §2
Test [9] deals with Staphylococcus aureus EN1252a gyrA^S84L grlA^S80F. As to the kind of experiment: microbe, parasite or virus in culture. The conditions noted are these: Staphylococcus aureus EN1252a gyrA^S84L grlA^S80F, cipR; read-out: Antimicrobial activity (MIC). The procedure:
as §1, §2

The subject of test [10] is Escherichia coli ATCC25922. As to the kind of experiment: MIC, microbroth dilution. Conditions: Escherichia coli ATCC25922, rifS; read-out: Antimicrobial activity (MIC).
Test [11] concerns Streptococcus pneumoniae ATCC6303. The experiment in a line: MIC, microbroth dilution. Conditions: Streptococcus pneumoniae ATCC6303, rifS; read-out: Antimicrobial activity (MIC).

In brackets after ≈: the same amount, converted by molar mass.

For `CO[C@H]1/C=C/O[C@@]2(C)Oc3c(C)c(O)c4c(c3/C2=N/OC(C)=O)C(=O)C=C(NC(=O)/C(C)=C\C=C\[C@H](C)[C@H](O)[C@@H](C)[C@@H](O)[C@@H](C)[C@H](OC(C)=O)[C@@H]1C)C4=O` [Example 9, 11-Deoxy-11-acetoxyiminorifamycin S], the MIC in [1] was in the range of 0.0005 to 0.063 µg/mL (≈ 0.000664 to 0.0837 µM); in test [2], 0.004 to 0.5 µg/mL (≈ 0.00531 to 0.664 µM); in test [3] it was 0.5 to 64 µg/mL (≈ 0.664 to 85 µM); in test [4], 0.03 to 2 µg/mL (≈ 0.0399 to 2.66 µM); in [5], 0.0005 to 0.063 µg/mL (≈ 0.000664 to 0.0837 µM); in test [6], 2 to 32 µg/mL (≈ 2.66 to 42.5 µM). In addition, the MIC in test [7] was 0.125 to 16 µg/mL (≈ 0.166 to 21.3 µM); in [8], 0.25 to 32 µg/mL (≈ 0.332 to 42.5 µM); in [9] it was 0.004 to 0.5 µg/mL (≈ 0.00531 to 0.664 µM); in test [10] it was 0.125 to 8 µg/mL (≈ 0.166 to 10.6 µM); in test [11], 0.0002 to 0.125 µg/mL (≈ 0.000266 to 0.166 µM).
With `COCCOCO/N=C1/c2c3c(C)c(O)c4c2C(=O)C=C(NC(=O)/C(C)=C\C=C\[C@H](C)[C@H](O)[C@@H](C)[C@@H](O)[C@@H](C)[C@H](OC(C)=O)[C@H](C)[C@@H](OC)/C=C/O[C@@]1(C)O3)C4=O` [Example 10, 11-Deoxy-11-methoxyethoxymethoxyiminorifamycin S], the MIC lay in the range of 0.0005 to 0.063 µg/mL (≈ 0.000626 to 0.0789 µM) in test [1]; 0.004 to 0.5 µg/mL (≈ 0.00501 to 0.626 µM) in test [2]; 0.5 to 64 µg/mL (≈ 0.626 to 80.1 µM) in test [3]; 0.03 to 2 µg/mL (≈ 0.0376 to 2.5 µM) in [4]; 0.0005 to 0.063 µg/mL (≈ 0.000626 to 0.0789 µM) in test [5]; 2 to 32 µg/mL (≈ 2.5 to 40.1 µM) in [6]. For the same molecule, the MIC in test [7] was in the range of 0.125 to 16 µg/mL (≈ 0.156 to 20 µM); in test [8], 0.25 to 32 µg/mL (≈ 0.313 to 40.1 µM); in test [9], 0.004 to 0.5 µg/mL (≈ 0.00501 to 0.626 µM); in [10] it was 0.125 to 8 µg/mL (≈ 0.156 to 10 µM); in test [11] it was 0.0002 to 0.125 µg/mL (≈ 0.00025 to 0.156 µM).
In the case of `C=CCO/N=C1/c2c3c(C)c(O)c4c2C(=O)C=C(NC(=O)/C(C)=C\C=C\[C@H](C)[C@H](O)[C@@H](C)[C@@H](O)[C@@H](C)[C@H](OC(C)=O)[C@H](C)[C@@H](OC)/C=C/O[C@@]1(C)O3)C4=O` [Example 11, 11-Deoxy-11-allyloxyiminorifamycin S], the MIC in test [1] lay within 0.0005 to 0.063 µg/mL (≈ 0.000666 to 0.0839 µM); in [2] it was 0.004 to 0.5 µg/mL (≈ 0.00533 to 0.666 µM); in test [3], 0.5 to 64 µg/mL (≈ 0.666 to 85.2 µM); in [4], 0.03 to 2 µg/mL (≈ 0.04 to 2.66 µM); in test [5], 0.0005 to 0.063 µg/mL (≈ 0.000666 to 0.0839 µM); in test [6], 2 to 32 µg/mL (≈ 2.66 to 42.6 µM). The MIC in test [7] fell in the range of 0.125 to 16 µg/mL (≈ 0.166 to 21.3 µM); in test [8], 0.25 to 32 µg/mL (≈ 0.333 to 42.6 µM); in test [9], 0.004 to 0.5 µg/mL (≈ 0.00533 to 0.666 µM); in test [10], 0.125 to 8 µg/mL (≈ 0.166 to 10.7 µM); in test [11] it was 0.0002 to 0.125 µg/mL (≈ 0.000266 to 0.166 µM).
Regarding `CO[C@H]1/C=C/O[C@@]2(C)Oc3c(C)c(O)c4c(c3/C2=N/OCCBr)C(=O)C=C(NC(=O)/C(C)=C\C=C\[C@H](C)[C@H](O)[C@@H](C)[C@@H](O)[C@@H](C)[C@H](OC(C)=O)[C@@H]1C)C4=O` [Example 12, 11-Deoxy-11-(2-bromoethoxyimino)rifamycin S], the MIC in test [1] lay within 0.0005 to 0.063 µg/mL (≈ 0.000611 to 0.077 µM); in test [2], 0.004 to 0.5 µg/mL (≈ 0.00489 to 0.611 µM); in test [3], 0.5 to 64 µg/mL (≈ 0.611 to 78.3 µM); in [4] it was 0.03 to 2 µg/mL (≈ 0.0367 to 2.45 µM); in test [5], 0.0005 to 0.063 µg/mL (≈ 0.000611 to 0.077 µM); in [6], 2 to 32 µg/mL (≈ 2.45 to 39.1 µM). Further, the MIC in [7] lay in the range of 0.125 to 16 µg/mL (≈ 0.153 to 19.6 µM); in test [8], 0.25 to 32 µg/mL (≈ 0.306 to 39.1 µM); in [9], 0.004 to 0.5 µg/mL (≈ 0.00489 to 0.611 µM); in [10], 0.125 to 8 µg/mL (≈ 0.153 to 9.78 µM); in test [11], 0.0002 to 0.125 µg/mL (≈ 0.000245 to 0.153 µM).
For `COc1c(N2CCN(CCO/N=C3/c4c5c(C)c(O)c6c4C(=O)C=C(NC(=O)/C(C)=C\C=C\[C@H](C)[C@H](O)[C@@H](C)[C@@H](O)[C@@H](C)[C@H](OC(C)=O)[C@H](C)[C@@H](OC)/C=C/O[C@@]3(C)O5)C6=O)C(C)C2)c(F)cc2c(=O)c(C(=O)O)cn(C3CC3)c12` (stereo partly shown) [Example 13], the MIC was in the range of 0.0005 to 0.063 µg/mL (≈ 0.00045 to 0.0566 µM) in test [1]; 0.004 to 0.5 µg/mL (≈ 0.0036 to 0.45 µM) in test [2]; 0.5 to 64 µg/mL (≈ 0.45 to 57.5 µM) in [3]; 0.03 to 2 µg/mL (≈ 0.027 to 1.8 µM) in test [4]; 0.0005 to 0.063 µg/mL (≈ 0.00045 to 0.0566 µM) in test [5]; 2 to 32 µg/mL (≈ 1.8 to 28.8 µM) in test [6]. Also, the MIC in test [7] was 0.125 to 16 µg/mL (≈ 0.112 to 14.4 µM); in test [8], 0.25 to 32 µg/mL (≈ 0.225 to 28.8 µM); in [9] it was 0.004 to 0.5 µg/mL (≈ 0.0036 to 0.45 µM); in test [10], 0.125 to 8 µg/mL (≈ 0.112 to 7.19 µM); in test [11], 0.0002 to 0.125 µg/mL (≈ 0.00018 to 0.112 µM).

Values taken from patent US7256187B2, “Rifamycin C-11 oxime derivatives effective against drug-resistant microbes” (Cumbre Pharmaceuticals Inc., priority 2004, dated 2007).
